Source: ChEMBL document CHEMBL5608179, “Triptonide induces apoptosis and inhibits the proliferation of ovarian cancer cells by activating the p38/p53 pathway and autophagy” (Bioorg Med Chem, 2024)
Activity calls are given as the source filed them. The rule behind the calls is not given here.

Experiments:
A2780 [1] = experiment: Induction of cell cycle arrest in human A2780 cells assessed as accumulation of cells at S phase at 2 nM measured after 24 hrs by PI staining based ell Cycle Analysis Kit (KeyGEN) (reference value: 10%); assay type: functional
SK-OV-3 = experiment: Cytotoxicity against human SK-OV-3 cells assessed as cell viability measured after 48 hrs by MTT assay; assay type: functional, cell-based; details: SK-OV-3, 48 h
A2780 [2] = experiment: Induction of apoptosis in human A2780 cells assessed as decrease in cleaved Bcl-xL level measured at 5 to 20 nM after 12 to 48 hrs by Western blot analysis; assay type: functional, cell-based; details: dose 5-20 nM, time 12-48 hrs
[3] = Toxicity in BALB/c-nu mouse subcutaneously inoculated with human A2780 cells assessed as change in body weight at 3 to 5 mg/kg, ip administered every day for 20 days; assay type: organism-based; details: in vivo, 480 h, dose 3-5 mg/kg, time 20 day
A2780 [4] = experiment: Induction of apoptosis in human A2780 cells assessed as apoptotic rate measured at 2 to 8 nM by Annexin V-FITC/PI flow cytometry; assay type: functional, cell-based; details: dose 2-8 nM, time 24-72 hrs, TDE = time-dependent effect
A2780 [5] = experiment: Induction of cleaved PARP level in human A2780 cells at 5 to 20 nM measured after 24 hrs by Western blot analysis; assay type: functional, cell-based; details: dose 5-20 nM
A2780 [6] = experiment: Induction of apoptosis in human A2780 cells assessed as early apoptotic cells in presence of SB203580 at 8 nM measured after 24 to 72 hrs by Annexin V-FITC/PI flow cytometry (reference value: 2.82%); assay type: functional; details: time 24-72 hrs
A2780 [7] = experiment: Induction of apoptosis in human A2780 cells assessed as necrotic cells in presence of p53 SiRNA 1 at 4 nM measured after 24 hrs by Annexin V-FITC/PI flow cytometry (reference value: 0.39%); assay type: functional
A2780 [8] = experiment: Induction of cell cycle arrest at S phase in human A2780 cells assessed as increase in CDK2 proteins measured after 24 hrs by Western blot analysis; assay type: functional, cell-based; details: dose 5-20 nM
A2780 [9] = experiment: Induction of apoptosis in human A2780 cells assessed as viable cells at 4 nM measured after 24 hrs by Annexin V-FITC/PI flow cytometry (reference value: 94.2%); assay type: functional; details: read-out: Activity
[10] = Toxicity in BALB/c-nu mouse subcutaneously inoculated with human A2780 cells assessed as morphological changes of liver at 3 to 5 mg/kg, ip administered every day for 20 days by HE staining analysis; assay type: organism-based; details: in vivo, sc, 480 h, dose 3-5 mg/kg, time 20 day
A2780 [11] = experiment: Induction of apoptosis in human A2780 cells assessed as decrease in cleaved Bcl-2 level measured at 5 to 20 nM after 12 to 48 hrs by Western blot analysis; assay type: functional, cell-based; details: dose 5-20 nM, time 12-48 hrs
A2780 [12] = experiment: Induction of cell cycle arrest at S phase in human A2780 cells assessed as increase in cyclin E1 proteins in presence of SB203580 measured at 10 nM after 24 hrs by Western blot analysis; assay type: functional, cell-based
A2780 [13] = experiment: In vivo antitumor activity against human A2780 cells subcutaneously inoculated in BALB/c-nu mouse assessed as reduction in tumor weight at 3 to 5 mg/kg, ip administered every day for 20 days; assay type: functional, organism-based; details: dose 3-5 mg/kg, time 20.0 day
A2780 [14] = experiment: Induction of apoptosis in human A2780 cells assessed as early apoptotic cells in presence of bafilomycin A1 at 800 nM measured after 24 hrs by Annexin V-FITC/PI flow cytometry (reference value: 2.17%); assay type: functional
A2780 [15] = experiment: Induction of apoptosis in human A2780 cells assessed as early apoptotic cells at 800 nM measured after 24 hrs by Annexin V-FITC/PI flow cytometry (reference value: 2.17%); assay type: functional
A2780 [16] = experiment: Induction of cell cycle arrest in human A2780 cells assessed as accumulation of cells at G2 phase at 2 nM measured after 24 hrs by PI staining based ell Cycle Analysis Kit (KeyGEN) (reference value: 22.2%); assay type: functional
A2780 [17] = experiment: Induction of apoptosis in human A2780 cells assessed as necrotic cells at 8 nM measured after 24 to 72 hrs by Annexin V-FITC/PI flow cytometry (reference value: 0.39%); assay type: functional; details: time 24-72 hrs
A2780 [18] = experiment: Induction of apoptosis in human A2780 cells assessed as viable cells at 8 nM measured after 24 to 72 hrs by Annexin V-FITC/PI flow cytometry (reference value: 94.2%); assay type: functional; details: time 24-72 hrs, read-out: Activity
A2780 [19] = experiment: Induction of LC3II expression in human A2780 cells in presence of autophagy inhibitor bafilomycin A1 at 5 to 20 nM measured after 24 hrs by Western blot analysis; assay type: functional, cell-based; details: dose 5-20 nM
A2780 [20] = experiment: Induction of cell cycle arrest at S phase in human A2780 cells assessed as increase in cyclin B1 proteins measured after 24 hrs by Western blot analysis; assay type: functional, cell-based; details: dose 5-20 nM
A2780 [21] = experiment: Induction of cell cycle arrest at S phase in human A2780 cells assessed as increase in CDK2 proteins in presence of SB203580 measured at 10 nM after 24 hrs by Western blot analysis; assay type: functional, cell-based
A2780 [22] = experiment: Induction of apoptosis in human A2780 cells assessed as early apoptotic cells in presence of p53 SiRNA 1 at 4 nM measured after 24 hrs by Annexin V-FITC/PI flow cytometry (reference value: 2.82%); assay type: functional
A2780 [23] = experiment: Induction of cleaved PARP level in human A2780 cells in presence of autophagy inhibitor bafilomycin A1 at 5 to 20 nM measured after 24 hrs by Western blot analysis; assay type: functional, cell-based; details: dose 5-20 nM
A2780 [24] = experiment: Cytotoxicity against human A2780 cells assessed as cell viability measured after 24 to 72 hrs by MTT assay; assay type: functional, cell-based; details: dose 4-64 nM, time 24-72 hrs
A2780 [25] = experiment: Inhibition of colony formation in human A2780 cells in presence of SB203580 at 0.25 nM incubated for 48 hrs by crystal violet staining based colony counting method; assay type: functional, cell-based
A2780 [26] = experiment: Induction of cell cycle arrest at S phase in human A2780 cells assessed as increase in cyclin E1 proteins measured after 24 hrs by Western blot analysis; assay type: functional, cell-based; details: dose 5-20 nM
A2780 [27] = experiment: Induction of cell cycle arrest in human A2780 cells assessed as accumulation of cells at G1 phase in presence of SB203580 at 4 nM measured after 24 hrs by PI staining based Cell Cycle Analysis Kit (KeyGEN) (reference value: 54.2%); assay type: functional
A2780 [28] = experiment: Induction of apoptosis in human A2780 cells assessed as late apoptotic cells at 4 nM measured after 24 hrs by Annexin V-FITC/PI flow cytometry (reference value: 2.54%); assay type: functional

CC(C)[C@]12O[C@H]1[C@@H]1O[C@]13[C@]1(O[C@H]1C[C@H]1C4=C(CC[C@@]13C)C(=O)OC4)[C@@H]2O [TRIPTOLIDE]
Activity (A2780 [1]): 19.9% | IC50 (SK-OV-3): 803 nM | Activity (A2780 [2]): Dose-Dependent Effect | Activity [3]: Non-Toxic | Activity (A2780 [4]): Tde | Activity (A2780 [5]): Active | Activity (A2780 [6]): 13.1% | Activity (A2780 [7]): 8.18% | Activity (A2780 [8]): Dose-Dependent Effect | viability at 0.004 µM (A2780 [9]): 33.1% | Activity [10]: Non-Toxic | Activity (A2780 [11]): Dose-Dependent Effect | Activity (A2780 [12]): inactive | Activity (A2780 [13]): Active | Activity (A2780 [14]): 5.02% | Activity (A2780 [15]): 14.7% | Activity (A2780 [16]): 15.3% | Activity (A2780 [17]): 5.59% | viability at 0.008 µM (A2780 [18]): 55.8% | Activity (A2780 [19]): inactive | Activity (A2780 [20]): Dose-Dependent Effect | Activity (A2780 [21]): inactive | Activity (A2780 [22]): 11.7% | Activity (A2780 [23]): inactive | Activity (A2780 [24]): Dose-Dependent Effect | inhibition (A2780 [25]): inactive | Activity (A2780 [26]): Dose-Dependent Effect | Activity (A2780 [27]): 48.7% | Activity (A2780 [28]): 27.5%
